Source: patent US9050341B2, “Methods of treating drug resistant and other tumors by administering 6,7-dialkoxy quinazoline derivatives” (NATCO PHARMA LIMITED, priority 2009, dated 2015)

Experiments:
Experiment in all cases: KinomeScan kinase profiling
Type in all cases: binding
AAK1 = biological target: T1, AAK1 (Homo sapiens, UniProt Q2M2I8)
T1 construct: host or cells: E. coli host derived from BL21 (T7 phage lysate)
Summary of the method: (§1)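 Kinases were expressed as T7 phage fusions in a BL21-derived E. coli host and the cleared lysates were used. Ligand beads were blocked with biotin and buffer (1% BSA, 0.05% Tween 20, 1 mM DTT). Compounds came from 40× DMSO stocks, and phage in the eluates was titred by qPCR.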

AKT3 = biological target: T2, AKT3 (Homo sapiens, UniProt Q9Y243)
T2 construct: host or cells: E. coli host derived from BL21 (T7 phage lysate)
T2 sequence (Q9Y243 whole entry): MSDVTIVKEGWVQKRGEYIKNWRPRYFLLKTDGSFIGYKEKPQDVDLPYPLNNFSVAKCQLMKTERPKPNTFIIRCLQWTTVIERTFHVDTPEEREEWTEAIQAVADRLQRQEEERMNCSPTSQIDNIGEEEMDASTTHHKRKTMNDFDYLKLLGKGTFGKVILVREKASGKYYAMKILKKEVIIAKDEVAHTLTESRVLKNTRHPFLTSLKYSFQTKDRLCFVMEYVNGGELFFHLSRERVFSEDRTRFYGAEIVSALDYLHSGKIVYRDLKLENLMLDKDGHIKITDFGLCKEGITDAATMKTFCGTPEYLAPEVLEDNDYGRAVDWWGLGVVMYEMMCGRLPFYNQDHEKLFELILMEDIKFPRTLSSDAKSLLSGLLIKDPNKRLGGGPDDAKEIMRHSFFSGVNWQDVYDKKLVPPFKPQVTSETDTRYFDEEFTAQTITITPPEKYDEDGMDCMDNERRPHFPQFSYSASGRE
Summary of the method: as §1

AMPK-alpha2 = biological target: T3, AMPK-alpha2 (Homo sapiens, UniProt P54646)
T3 construct: host or cells: E. coli host derived from BL21 (T7 phage lysate)
Summary of the method: as §1

BRAF (V600E) = biological target: T4, BRAF (V600E) (Homo sapiens, UniProt P15056, V600E)
T4 construct: purchased Ambit Biosciences Corp (KinomeScan); host or cells: E. coli host derived from the BL21 strain, T7 phage
T4 sequence (P15056 whole entry V600E): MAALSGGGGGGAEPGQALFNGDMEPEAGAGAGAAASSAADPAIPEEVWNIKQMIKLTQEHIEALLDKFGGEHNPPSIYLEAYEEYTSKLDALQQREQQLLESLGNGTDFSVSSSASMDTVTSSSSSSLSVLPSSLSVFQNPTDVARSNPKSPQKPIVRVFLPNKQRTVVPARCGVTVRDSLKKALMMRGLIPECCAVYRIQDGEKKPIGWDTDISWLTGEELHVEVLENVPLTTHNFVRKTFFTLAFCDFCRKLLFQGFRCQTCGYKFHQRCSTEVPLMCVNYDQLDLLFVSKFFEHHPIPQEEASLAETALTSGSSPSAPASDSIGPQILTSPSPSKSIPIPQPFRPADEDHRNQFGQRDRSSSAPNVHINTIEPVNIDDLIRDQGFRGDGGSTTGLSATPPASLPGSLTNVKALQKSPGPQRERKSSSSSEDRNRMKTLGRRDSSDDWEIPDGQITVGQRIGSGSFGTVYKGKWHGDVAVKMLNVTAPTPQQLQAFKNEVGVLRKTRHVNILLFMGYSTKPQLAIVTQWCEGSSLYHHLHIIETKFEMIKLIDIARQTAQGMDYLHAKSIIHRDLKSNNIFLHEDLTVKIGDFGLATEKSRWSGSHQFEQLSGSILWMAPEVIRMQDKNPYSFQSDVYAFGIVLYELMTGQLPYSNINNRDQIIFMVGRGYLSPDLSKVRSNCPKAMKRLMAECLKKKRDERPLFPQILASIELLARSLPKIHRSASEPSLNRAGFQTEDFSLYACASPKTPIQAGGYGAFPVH
Summary of the method: as §1

DCAMKL3 = biological target: T5, DCAMKL3 (Homo sapiens, UniProt Q9C098)
T5 construct: purchased Ambit Biosciences Corp (KinomeScan); host or cells: T7 phage in E. coli host derived from BL21
Summary of the method: as §1

DDR1 = biological target: T6, DDR1 (Homo sapiens, UniProt Q08345)
T6 construct: purchased Ambit Biosciences Corp (KinomeScan); host or cells: T7 phage in E. coli host derived from BL21
Summary of the method: as §1

EGFR (E746-A750del) = biological target: T7, EGFR (E746-A750del) (Homo sapiens, UniProt P00533, DEL746-750)
T7 construct: purchased Ambit Biosciences Corp (KinomeScan); host or cells: T7 phage in E. coli host derived from BL21
Summary of the method: as §1

IKK-alpha = biological target: T8, IKK-alpha (Homo sapiens, UniProt O15111)
T8 construct: host or cells: T7 phage in E. coli host derived from BL21
Summary of the method: as §1

[1] = biological target: T9, JAK1 (JH2domain-pseudokinase) (Homo sapiens, UniProt P23458)
T9 construct: JAK1 (JH2domain-pseudokinase); host or cells: T7 phage in E. coli host derived from BL21
Summary of the method: as §1

LYN = biological target: T10, LYN (Homo sapiens, UniProt P07948)
T10 construct: host or cells: E. coli derived from BL21, infected with T7 phage
Summary of the method: as §1

MERTK = biological target: T11, MERTK (Homo sapiens, UniProt Q12866)
T11 construct: host or cells: E. coli derived from BL21, infected with T7 phage
Summary of the method: as §1

MET = biological target: T12, MET (Homo sapiens, UniProt P08581)
T12 construct: host or cells: E. coli derived from BL21, infected with T7 phage
Summary of the method: as §1

MKNK1 = biological target: T13, MKNK1 (Homo sapiens, UniProt Q9BUB5)
T13 construct: host or cells: T7 phage in E. coli host derived from BL21
T13 sequence (Q9BUB5 whole entry): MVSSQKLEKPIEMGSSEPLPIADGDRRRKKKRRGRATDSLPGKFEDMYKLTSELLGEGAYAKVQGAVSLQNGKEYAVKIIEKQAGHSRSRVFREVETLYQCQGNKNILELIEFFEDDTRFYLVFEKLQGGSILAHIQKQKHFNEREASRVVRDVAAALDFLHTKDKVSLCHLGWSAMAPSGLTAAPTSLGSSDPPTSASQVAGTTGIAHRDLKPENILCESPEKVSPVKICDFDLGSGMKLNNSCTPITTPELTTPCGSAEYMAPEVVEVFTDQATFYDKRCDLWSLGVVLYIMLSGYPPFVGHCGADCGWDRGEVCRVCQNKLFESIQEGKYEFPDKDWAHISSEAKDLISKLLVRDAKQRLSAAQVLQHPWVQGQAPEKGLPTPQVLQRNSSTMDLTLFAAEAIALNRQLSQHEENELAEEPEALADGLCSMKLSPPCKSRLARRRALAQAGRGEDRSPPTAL
Summary of the method: as §1

MRCKA = biological target: T14, MRCKA (Homo sapiens, UniProt Q5VT25)
T14 construct: host or cells: T7 phage in E. coli host derived from BL21
T14 sequence (Q5VT25 whole entry): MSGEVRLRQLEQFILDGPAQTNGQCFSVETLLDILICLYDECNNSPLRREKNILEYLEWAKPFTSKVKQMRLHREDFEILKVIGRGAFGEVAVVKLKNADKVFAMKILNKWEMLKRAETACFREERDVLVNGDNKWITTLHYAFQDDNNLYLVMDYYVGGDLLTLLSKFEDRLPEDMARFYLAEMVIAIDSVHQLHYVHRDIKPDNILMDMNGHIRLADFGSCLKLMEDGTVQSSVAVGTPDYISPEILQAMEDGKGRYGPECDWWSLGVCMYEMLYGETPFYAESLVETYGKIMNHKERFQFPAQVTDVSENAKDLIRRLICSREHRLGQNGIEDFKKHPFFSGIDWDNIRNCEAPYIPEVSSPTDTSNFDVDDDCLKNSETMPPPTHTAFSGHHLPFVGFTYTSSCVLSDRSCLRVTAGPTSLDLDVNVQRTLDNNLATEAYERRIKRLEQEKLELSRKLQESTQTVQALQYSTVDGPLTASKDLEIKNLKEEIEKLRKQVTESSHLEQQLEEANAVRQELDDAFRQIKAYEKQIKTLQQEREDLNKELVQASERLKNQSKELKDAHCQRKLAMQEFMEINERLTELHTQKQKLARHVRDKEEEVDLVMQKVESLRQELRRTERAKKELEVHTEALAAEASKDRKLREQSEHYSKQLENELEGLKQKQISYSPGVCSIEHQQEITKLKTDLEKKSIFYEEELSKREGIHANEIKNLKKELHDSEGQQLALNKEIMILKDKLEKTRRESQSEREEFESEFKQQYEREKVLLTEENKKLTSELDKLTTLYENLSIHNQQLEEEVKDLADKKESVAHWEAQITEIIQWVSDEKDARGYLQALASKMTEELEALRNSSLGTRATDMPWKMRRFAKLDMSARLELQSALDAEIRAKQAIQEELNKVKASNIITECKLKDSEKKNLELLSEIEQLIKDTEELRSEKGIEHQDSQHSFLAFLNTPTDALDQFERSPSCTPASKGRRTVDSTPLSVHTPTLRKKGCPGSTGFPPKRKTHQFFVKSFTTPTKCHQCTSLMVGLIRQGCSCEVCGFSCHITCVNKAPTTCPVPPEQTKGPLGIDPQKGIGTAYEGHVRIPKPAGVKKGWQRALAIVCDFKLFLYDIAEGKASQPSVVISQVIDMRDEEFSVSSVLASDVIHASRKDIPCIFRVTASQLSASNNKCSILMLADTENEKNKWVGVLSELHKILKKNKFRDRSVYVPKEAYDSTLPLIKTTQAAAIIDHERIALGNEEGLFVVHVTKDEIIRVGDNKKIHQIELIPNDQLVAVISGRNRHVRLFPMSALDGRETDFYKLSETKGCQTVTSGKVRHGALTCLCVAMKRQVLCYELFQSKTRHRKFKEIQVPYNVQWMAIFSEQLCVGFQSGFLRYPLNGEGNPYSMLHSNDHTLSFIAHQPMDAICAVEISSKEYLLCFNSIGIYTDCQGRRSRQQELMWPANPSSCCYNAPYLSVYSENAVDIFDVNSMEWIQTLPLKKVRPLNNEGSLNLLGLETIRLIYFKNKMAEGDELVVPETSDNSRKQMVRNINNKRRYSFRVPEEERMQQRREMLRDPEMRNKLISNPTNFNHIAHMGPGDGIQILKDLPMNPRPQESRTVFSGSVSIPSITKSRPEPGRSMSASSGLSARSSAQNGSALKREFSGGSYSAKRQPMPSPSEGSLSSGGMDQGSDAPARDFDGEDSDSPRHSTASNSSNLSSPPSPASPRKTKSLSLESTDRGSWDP
Summary of the method: as §1

PIM3 = biological target: T15, PIM3 (Homo sapiens, UniProt Q86V86)
T15 construct: purchased Ambit Biosciences Corp (KinomeScan); host or cells: E. coli host derived from BL21, infected with T7 phage
Summary of the method: as §1

PIP5K1A = biological target: T16, PIP5K1A (Homo sapiens, UniProt Q99755)
T16 construct: purchased Ambit Biosciences Corp (KinomeScan); host or cells: E. coli host derived from BL21, infected with T7 phage
Summary of the method: as §1

PRKCQ = biological target: T17, PRKCQ (Homo sapiens, UniProt Q04759)
T17 construct: purchased Ambit Biosciences Corp (KinomeScan); host or cells: E. coli host derived from BL21, infected with T7 phage
Summary of the method: as §1

[2] = biological target: T18, RPS6KA4 (Kin.Dom.-2-C-terminal) (Homo sapiens, UniProt O75676)
T18 construct: RPS6KA4(KIN.DOM.2); host or cells: E. coli host derived from BL21, T7 phage lysate
Summary of the method: as §1

[3] = biological target: T19, RPS6KA6 (Kin.Dom.-1-N-terminal) (Homo sapiens, UniProt Q9UK32)
T19 construct: RPS6KA6 (Kin.Dom.-1-N-terminal); host or cells: E. coli host derived from BL21, T7 phage lysate
T19 sequence (Q9UK32 73-330 limits assumed): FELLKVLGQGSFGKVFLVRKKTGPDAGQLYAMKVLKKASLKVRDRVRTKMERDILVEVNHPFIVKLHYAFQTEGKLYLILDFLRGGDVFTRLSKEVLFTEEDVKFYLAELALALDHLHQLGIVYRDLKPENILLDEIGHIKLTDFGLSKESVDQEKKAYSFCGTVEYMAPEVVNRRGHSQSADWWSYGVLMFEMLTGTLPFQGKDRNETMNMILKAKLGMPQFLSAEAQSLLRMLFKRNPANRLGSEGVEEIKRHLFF
Summary of the method: as §1

TIE1 = biological target: T20, TIE1 (Homo sapiens, UniProt P35590)
T20 construct: host or cells: E. coli host derived from the BL21 strain, T7 phage lysate
T20 sequence (P35590 22-1138): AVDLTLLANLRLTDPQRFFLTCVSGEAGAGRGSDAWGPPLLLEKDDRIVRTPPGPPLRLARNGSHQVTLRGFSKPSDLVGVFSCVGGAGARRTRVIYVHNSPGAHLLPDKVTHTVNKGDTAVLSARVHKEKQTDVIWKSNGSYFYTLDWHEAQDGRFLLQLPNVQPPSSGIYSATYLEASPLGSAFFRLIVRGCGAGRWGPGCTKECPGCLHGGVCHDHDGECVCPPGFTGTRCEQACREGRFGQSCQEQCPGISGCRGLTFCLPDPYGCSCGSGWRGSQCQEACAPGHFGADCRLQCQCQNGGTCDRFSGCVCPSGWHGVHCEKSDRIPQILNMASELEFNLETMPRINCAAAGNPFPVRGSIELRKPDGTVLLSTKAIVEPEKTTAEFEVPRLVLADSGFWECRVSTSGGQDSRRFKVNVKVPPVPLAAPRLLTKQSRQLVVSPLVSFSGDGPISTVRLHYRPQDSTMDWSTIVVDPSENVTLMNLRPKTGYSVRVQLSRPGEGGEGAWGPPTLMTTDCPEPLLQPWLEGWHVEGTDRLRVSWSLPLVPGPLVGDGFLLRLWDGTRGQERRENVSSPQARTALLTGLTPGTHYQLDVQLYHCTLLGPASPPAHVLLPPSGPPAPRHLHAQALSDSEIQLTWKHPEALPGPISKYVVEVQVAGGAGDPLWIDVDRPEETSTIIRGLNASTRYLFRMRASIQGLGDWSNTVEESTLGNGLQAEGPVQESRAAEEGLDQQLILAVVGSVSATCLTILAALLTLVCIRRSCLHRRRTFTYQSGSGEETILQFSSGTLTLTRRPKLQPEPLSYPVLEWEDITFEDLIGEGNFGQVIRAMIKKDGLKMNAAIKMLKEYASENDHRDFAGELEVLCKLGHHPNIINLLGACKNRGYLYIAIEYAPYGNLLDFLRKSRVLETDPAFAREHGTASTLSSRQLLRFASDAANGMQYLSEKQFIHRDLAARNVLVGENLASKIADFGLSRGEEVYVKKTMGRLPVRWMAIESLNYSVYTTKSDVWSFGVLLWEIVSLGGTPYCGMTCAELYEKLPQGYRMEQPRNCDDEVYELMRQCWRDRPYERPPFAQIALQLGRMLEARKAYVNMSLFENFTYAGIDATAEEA
Summary of the method: as §1

TRKA = biological target: T21, TRKA (Homo sapiens, UniProt P04629)
T21 construct: purchased Ambit Biosciences Corp (KinomeScan); host or cells: E. coli host derived from the BL21 strain (T7 phage lysate)
Summary of the method: as §1

`C#Cc1cccc(Nc2ncnc3cc(OC)c(OCCCN4CCOCC4)cc23)c1` [NRC-2694, N-(3-ethylnylphenyl)-7-methoxy-6-[3-(4-morpholinyl)propoxy]-4-quinazolinamine] was tested, and the “% Ctrl @ 10000 nM” value (AAK1) was 38 % Ctrl, the “% Ctrl @ 10000 nM” value (AKT3) was 66 % Ctrl and the “% Ctrl @ 10000 nM” value (AMPK-alpha2) was 61 % Ctrl. For the same compound, the “% Ctrl @ 10000 nM” value (BRAF (V600E)) was 73 % Ctrl, the “% Ctrl @ 10000 nM” value (DCAMKL3) was 14 % Ctrl and the “% Ctrl @ 10000 nM” value (DDR1) was 39 % Ctrl. The “% Ctrl @ 10000 nM” value (EGFR (E746-A750del)) was 0 % Ctrl, the “% Ctrl @ 10000 nM” value (IKK-alpha) was 41 % Ctrl and the “% Ctrl @ 10000 nM” value [1] was 81 % Ctrl. The “% Ctrl @ 10000 nM” value (LYN) was 13 % Ctrl, the “% Ctrl @ 10000 nM” value (MERTK) was 48 % Ctrl and the “% Ctrl @ 10000 nM” value (MET) was 33 % Ctrl. For the same compound, the “% Ctrl @ 10000 nM” value (MKNK1) was 1.2 % Ctrl, the “% Ctrl @ 10000 nM” value (MRCKA) was 81 % Ctrl and the “% Ctrl @ 10000 nM” value (PIM3) was 23 % Ctrl. The “% Ctrl @ 10000 nM” value (PIP5K1A) was 61 % Ctrl, the “% Ctrl @ 10000 nM” value (PRKCQ) was 83 % Ctrl and the “% Ctrl @ 10000 nM” value [2] was 8.9 % Ctrl. For the same compound, the “% Ctrl @ 10000 nM” value [3] was 94 % Ctrl, the “% Ctrl @ 10000 nM” value (TIE1) was 52 % Ctrl and the “% Ctrl @ 10000 nM” value (TRKA) was 100 % Ctrl.
